In patent publication US20100297109A1, “METHODS FOR INHIBITING FASCIN” (Cornell University, priority 2007, published 2010):

Columns and labels:
[1] = test system: human breast tumor MDA-MB 231 cells; experiment: Cell migration assay, MDA-MB-231 cells; format: cell-based
Description: (§1) Cells. Mouse 4T1 mammary tumor cells and human MDA-MB-231 breast tumor cells were obtained from ATCC and have been described previously (Shan et al. 2005, Yang et al. 2005). 4T1 cells were cultured in RPMI 1640 medium supplemented with 10% FBS. MDA-MB-231 cells were cultured in DMEM supplemented with 10% FBS. Wound-healing assay. The wound-healing assay involves observing whether confluent cells can migrate across a scrape or wound in the cell layer. Cell migration assays were performed as described previously (Yang et al. 2005, Shan et al 2006). Tumor cells were plated in a 24-well plate coated with gelatin in standard media. […] Photographs several random regions of the filter facing the second chamber are taken and the number of cells counted to calculate the average number of cells that had transmigrated.
Boyden Chamber Cell Migration Assay. […] Three randomly selected fields (10× objectives) on the lower side of the insert were photographed, and the migrated cells were counted. The migration was expressed as either the average number of migrated cells in a field or as percentage of migrated cells in positive control. Percentage was calculated with the formula P=100×(M−Mnc)/Mpc, where P is the percentage of migrated cells, M is the number of migrated cells, Mnc is the number of migrated cells in negative controls, and Mpc is the number of migrated cells in positive controls.

[2] = test system: MDA-MB-231 human breast tumor cells; experiment: Experimental lung metastasis of MDA-MB-231 cells in NOD-SCID mice, bioluminescence imaging; format: in vivo, mouse; details: 10 mg/kg I.P. every other day for seven weeks
Description: Breast Tumor Metastasis in Mice. All animal work was performed in compliance with the Institutional Animal Care and Use Committee of the Weill Medical College. Spontaneous 4T1 mouse breast tumor metastasis assay was done as described previously (Shan et al. 2005). NOD-SCID immunodeficient mice were used for experimental lung metastasis experiments. MDA-MB-231 human breast tumor cells expressing the TGL reporter were trypsinized and washed with PBS. This artificial TGL reporter gene encodes a triple fusion protein with herpes simplex virus 1 thymidine kinase fused to the N-terminus of enhanced GFP and firefly luciferase fused to the C-terminus of GFP (Ponomarev et al. 2004). Subsequently 1×10^6 cells in 0.2 ml PBS were injected into the lateral tail vein. […] Three randomly selected fields (10×objectives) on the lower side of the insert were photographed, and the cells on the lower surface of the insert were counted.
Third, the experimental metastasis model with MDA-MB-231 human tumor cells in immunodeficient mice was used to investigate the role of fascin in tumor metastasis and the effect of macroketone on the metastasis of human tumors in mice (FIG. 8 E-H). […] GFP-positive cells were enriched by fluorescence-activated cell sorting. […] The metastasis of tumor cells to the lung was monitored by non-invasive bioluminescence imaging (Minn et al. 2005). […]

[3] = biological target: fascin (Homo sapiens, UniProt Q16658); experiment: F-actin binding assay, high-speed centrifugation; set-up: GST (N); made in house; host or cells: Escherichia coli BL21
[4] = test system: human colon tumor Lovo cells; experiment: Cell migration assay, Lovo cells; format: cell-based
[5] = test system: human breast tumor MDA-MB-231 cells; experiment: Wound-healing assay, serum-induced migration of MDA-MB-231 cells; format: cell-based; details: 20 μM
Description: as §1, with “media. After the cells grew to confluence, wounds were made in the confluent layer of cell using a sterile instrument such as a sterile pipette tip. The cells were washed with Phosphate Buffered Saline (PBS) or other sterile solutions and then the migration was induced by adding medium supplemented with 10% FBS. When the wound for the positive control closed, cells were fixed with 3.7% formaldehyde and stained with crystal violet staining solution.” for “media.”

Structure (SMILES): COC1C=CCCCCC(=O)CCC(C)=CC(C)C1O (centres unmarked) [macroketone, Migrastatin ketone]
- inhibition of migration [1]: inhibited the migration
- reduction of metastasis of MDA-MB-231 cells (photon flux) [2]: > 80%
- fascin pulled down by F-actin [3]: significantly less fascin was pulled down
- inhibition of migration [4]: inhibited the migration
- inhibition of serum-induced migration (wound-healing) [5]: inhibited the migration
